Assay results as given in article PMC10714399, “Open Source Antibiotics: Simple Diarylimidazoles Are Potent against Methicillin-Resistant Staphylococcus aureus” (ACS Infectious Diseases, 2023).
Converted amounts (≈) assume the structure as drawn. Blank lines part the entries; values can stand above or below the compound they belong to.

Legend:
[1] = system: Cryptococcus neoformans H99 ATCC 208821; experiment: CO-ADD antifungal assay, C. neoformans; format: cell-based; conditions: ATCC208821
Procedure: Hit Confirmation of active compounds by whole cell growth inhibition assays was conducted as an 8-point dose response to determine the Minimum Inhibitory Concentration (MIC), in duplicate (n=2). The inhibition of growth is measured against those microorganisms that […]
Included in the Hit Confirmation were 5 bacteria: Escherichia coli, Klebsiella pneumoniae, Acinetobacter baumannii, Pseudomonas aeruginosa and Staphylococcus aureus, and 2 fungi Candida albicans and Cryptococcus neoformans.
In addition to determining MIC, active compounds were counter screened for cytotoxicity against a human embryonic kidney cell line, HEK293, by determining their CC50 value. The compounds were also screened for haemolysis of human red blood cells.
Assay Parameters Bacteria Fungi HEK293 Haemolysis […]
Duplicate (n=2) Duplicate (n=2) Duplicate (n=2) Duplicate (n=2)
QC Control MIC: Control MIC: Control CC50: Control HC10:
Non-Binding Non-Binding TC, 384-well Polypropylene […]
Fungi strains were cultured for 3 days on Yeast Extract-Peptone Dextrose (YPD) agar at 30 °C. A yeast suspension of 1 x 10^6 to 5 x 10^6 CFU/mL (as determined by OD530) was prepared from five colonies. […]
In both cases, the percentage of growth inhibition was calculated for each well, using the negative control (media only) and positive control (fungi without inhibitors) on the same plate. […]
(§1) Reading Plates - Haemolysis Clear 384w Corning 3680 […]

human red blood cells = format: cell-based; conditions: red cells of human, 20 h
Procedure: (§2) The absorbance was measured using a Tecan M1000 Pro monochromator plate reader.
(1 picture or pasted object on this page, not shown here)

molecular beacon DNA = experiment: DNA binding assay (molecular beacon melt curve); conditions: compound 0-5 μM, DNA 400 nM
Excerpt: An attempt to characterize the mechanism of toxicity led to testing compounds’ interactions with DNA molecular beacons, which are short strands of DNA tagged with a donor–acceptor pair of fluorophores. The proximity between the fluorophores when the DNA strand is correctly folded results in no fluorescence from the donor; should a compound interfere with DNA folding, a change in the melting temperature will be observed.
A molecular beacon DNA sequence [FAM] CGTATATATATATTTTTATATATATACG [TAM] (Eurofin Genomics, Germany) labeled with fluorescein–tetramethylrhodamine donor–acceptor pair was dissolved in nuclease-free water at 100 μM, aliquoted, and kept frozen at −20 °C.
A working 2 μM DNA solution and compound dilution at 2 and 20 μM in hybridization buffer (10 mM Tris, 1 mM EDTA, 50 mM NaCl, 1.5 mM MgCl2 pH 8) was made. DNA was annealed by heating up to 95 °C on a heat block and allowing to cool down to room temperature. […]
Measurements on the prepared plates were made on an Applied Biosystems 7500/7500 FastReal-Time PCR System (ThermoFisher, UK). A standard melt curve experiment was setup where temperature was ramped up from 15 to 90 °C at a 1% step gradient and fluorescence was monitored for filters 1 (FAM) and 3 (TAMRA). Fluorescence first derivatives against temperature were exported to Microsoft Excel and peak fitting was done using Origin 2022B.

in vitro = format: cell-based; conditions: human
Procedure: HEK293 cells were counted manually in a Neubauer haemocytometer and then plated in the 384-well plates containing the compounds to give a density of 5000 cells/well in a final volume of 50 µL. DMEM supplemented with 10% FBS was used as growth media and the cells were incubated together with the compounds for 20 h at 37 °C in 5% CO2.
Cytotoxicity (or cell viability) was measured by fluorescence, ex: 560/10 nm, em: 590/10 nm (F560/590), after addition of 5 µL of 25 µg/mL resazurin (2.3 µg/mL final concentration) and after incubation for further 3 h at 37 °C in 5% CO2. The fluorescence intensity was measured using a Tecan M1000 Pro monochromator plate reader, using automatic gain calculation. […]
Human whole blood was washed three times with 3 volumes of 0.9% NaCl and then resuspended in same to a concentration of 0.5 x 10^8 cells/mL, as determined by manual cell count in a Neubauer haemocytometer. […]
Haemolysis was determined by measuring the supernatant absorbance at […] (OD405).
as §2
HC10 and HC50 (concentration at 10% and 50% haemolysis, respectively) were calculated by curve fitting the inhibition values vs. log(concentration) using a sigmoidal dose-response function with variable fitting values for top, bottom and slope. […]
as §1

[2] = HEK293 toxicity, 96-well dose-response (UCL; MTT or resazurin, with or without recovery); format: cell-based, human; conditions: human, HEK293 cells; across protocol variations (recovery yes/no, MTT/resazurin); read-out: CC50 HEK293
Procedure: The importance of balancing potency vs MRSA and cytotoxicity led us to examine a subset of compounds more thoroughly for toxicity against human embryonic kidney cell line HEK293. […] Dmax is a parameter that quantifies toxicity at the highest tested concentration (32 μg/mL for all compounds), calculated as reciprocal percentage of viable cells (100 – viability%), where cells either were allowed to recover or viability was measured immediately after treatment. […] Our efforts focused on trying to replicate the original toxicity experiments (by CO-ADD) with tamoxifen using a protocol modified for use with 96-well plates. Given the variability of protocols and results in the literature,[28] it was important to compare with a standard protocol we have reliably used in our own laboratories.[29]−[33] […] Truly “non-toxic” compounds might be expected to show Dmax < 50% for all experiment variations, e.g., 861. […] A large spread of Dmax values comparing recovery and non-recovery conditions larger than 20% is perhaps indicative of a mechanism of toxicity that persists beyond exposure, i.e., cytotoxic compounds that continue to induce toxicity as cells recover and restart dividing, for example, compounds 865, 870, 871, 980, and 981. […] This variability could be driven by interference of the compounds with the fluorescence readout or resorufin build-up as previously described.[27]
HEK293 cells (ATCC, UK) at passage 32 were a kind gift from Dr. Ben Allsop from the Translational Research Office at University College London. Cells were tested for mycoplasma using a MycoAlert Detection Kit (Lonza, Switzerland) as per manufacturer instructions, frozen stocks were stored in liquid nitrogen, and cells were re-tested whenever a new aliquot was thawed.
Cells were maintained in DMEM (Sigma-Aldrich, UK) supplemented with 10% heat-inactivated FBS (Sigma-Aldrich, UK), 1% GlutaMax (ThermoFisher, UK), and 1% sodium pyruvate (Lonza, UK) without antibiotics in an incubator at 37 °C and 5% CO2. Media was changed every 2 days, and cells were passaged every 3–4 days at a subcultivation ratio of 1:10, by detaching the cells with phenol-free TrypLE Express (ThermoFisher, UK), after washing with HBSS Ca^2+/Mg^2+ (ThermoFisher, UK). Up to 55 passages were used throughout the experiments.
(a) Cell seeding: At subculture, a dilute solution of cells was counted using Trypan Blue (Sigma-Aldrich, UK) and a hemocytometer. Cells were further diluted to 7000 or 50 000 cells/mL for experiments.
For recovery experiments, 700 cells (100 μL) were seeded in 96-well plates and incubated for 48 h while cells reached exponential phase.
For non-recovery experiments, 5000 cells (100 μL) were seeded in 96-well plates and incubated for 48 h while cells reached confluence. This is the same number of cells as per the CO-ADD protocol where 384-well plates were used, but we extended the growth time to 48 h to produce a similar confluency.
Stock solutions were diluted 100 times (to 1% DMSO) to 32 μg/mL in full medium (vortexed briefly) and then serially diluted using a digital pipet (Explorer, Eppendorf, Germany) at a dilution factor of 2 to a final concentration of […].
(c) Dosing experiments: At the specified time after seeding, media was removed from cells, cells were washed with HBSS Ca^2+/Mg^2+ (100 μL), and 100 μL of diluted compounds were added as per Supporting Information - Biology, Figure S4, and incubated for 24 h.
After treatment, solutions were removed, and cells were washed with HBSS Ca^2+/Mg^2+. For non-recovery experiments, viability was determined immediately as described below.
For recovery experiments, fresh media was added to plates (100 μL) and cells were returned to the incubator for another 72 h, after which viability was recorded as described below.
i. MTT assay: 3-[4,5-Dimethylthiazol-2-yl]-2,5-diphenyltetrazolium bromide (MTT) (Sigma-Aldrich, UK) was dissolved in sterile PBS at 5 mg/mL with sonication (20 min), protected from light. […]

SMILES: OC(Cn1cncn1)(Cn1cncn1)c1ccc(F)cc1F [Fluconazole]
MIC [1]: 8 µg/mL

SMILES: CC[C@H](C)[C@H](NC(=O)CN)C(=O)NCC(=O)N[C@@H](C)C(=O)N[C@H](C(=O)N[C@@H](CC(C)C)C(=O)N[C@@H](CCCCN)C(=O)N[C@H](C(=O)N[C@@H](CC(C)C)C(=O)N[C@H](C(=O)N[C@H](C(=O)NCC(=O)N[C@@H](CC(C)C)C(=O)N1CCC[C@H]1C(=O)N[C@@H](C)C(=O)N[C@@H](CC(C)C)C(=O)N[C@H](C(=O)N[C@@H](CO)C(=O)N[C@@H](Cc1c[nH]c2ccccc12)C(=O)N[C@H](C(=O)N[C@@H](CCCCN)C(=O)N[C@@H](CCCNC(=N)N)C(=O)N[C@@H](CCCCN)C(=O)N[C@@H](CCCNC(=N)N)C(=O)N[C@@H](CCC(N)=O)C(=O)N[C@@H](CCC(N)=O)C(N)=O)[C@@H](C)CC)[C@@H](C)CC)[C@@H](C)O)[C@@H](C)O)C(C)C)C(C)C [Melittin]
HC10 (concentration at 10% haemolysis) (human red blood cells): 2.7 µg/mL

effect on DNA molecular beacon melting temperature (molecular beacon DNA): dose–response behavior
SMILES: COc1cccc2c1C(=O)c1c(O)c3c(c(O)c1C2=O)C[C@@](O)(C(=O)CO)C[C@@H]3O[C@H]1C[C@H](N)[C@H](O)[C@H](C)O1 [doxorubicin]

SMILES: CC/C(=C(\c1ccccc1)c1ccc(OCCN(C)C)cc1)c1ccccc1 [tamoxifen, reference compound]
CC50 at 20 h (in vitro): 9 µg/mL (≈ 24.2 µM) | CC50 at 24 h [2]: 5.3 to 15.5 µg/mL (≈ 14.3 to 41.7 µM)
